Data published in patent publication US8088815B2, “Spiroindolinone pyrrolidines” (Hoffman-La Roche Inc., priority 2009, dated 2012).

Each compound was assayed against interaction between p53 and MDM2 proteins (Homo sapiens, UniProt Q00987) (assay: HTRF assay of inhibition of the p53-MDM2 interaction (GST-MDM2 / biotinylated p53 peptide)). Settings: recombinant GST-tagged MDM2 and biotinylated p53 peptide, bsa:0.02%.
interaction between p53 and MDM2 proteins, sequence (Q00987 whole entry): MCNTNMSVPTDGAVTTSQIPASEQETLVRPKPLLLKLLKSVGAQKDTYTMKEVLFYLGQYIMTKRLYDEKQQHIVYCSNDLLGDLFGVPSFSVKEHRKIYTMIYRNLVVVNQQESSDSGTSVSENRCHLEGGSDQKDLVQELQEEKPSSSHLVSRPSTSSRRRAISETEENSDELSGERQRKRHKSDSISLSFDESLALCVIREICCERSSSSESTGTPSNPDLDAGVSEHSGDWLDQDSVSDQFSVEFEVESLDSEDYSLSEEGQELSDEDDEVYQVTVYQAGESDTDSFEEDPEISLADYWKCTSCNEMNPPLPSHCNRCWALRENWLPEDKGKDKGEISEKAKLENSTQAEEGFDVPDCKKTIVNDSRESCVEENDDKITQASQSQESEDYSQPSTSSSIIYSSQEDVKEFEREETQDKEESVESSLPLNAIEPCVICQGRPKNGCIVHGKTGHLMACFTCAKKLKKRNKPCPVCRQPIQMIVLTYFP
Type: binding
In the case of `CCOC(=O)Cc1ccc(NC(=O)[C@@H]2N[C@@H](CC(C)(C)C)[C@@]3(C(=O)Nc4cc(Cl)ccc43)[C@H]2c2cccc(Cl)c2F)cc1` (racemic) [Example 219, rac-(4-{[(2′S,3′R,4′S,5′R)-6-chloro-4′-(3-chloro-2-fluoro-phenyl)-2′-(2,2-dimethyl-propyl)-2-oxo-1,2-dihydro-spiro[indole-3,3′-pyrrolidine]-5′-carbonyl]amino}-phenyl)-acetic acid ethyl ester], the IC50 is reported as 13 nM.
`CC(C)(C)C[C@@H]1N[C@@H](C(=O)Nc2ccc(CC(=O)O)cc2)[C@H](c2cccc(Cl)c2F)[C@]12C(=O)Nc1cc(Cl)ccc12` (racemic) [Example 220, rac-(4-{[(2′S,3′R,4′S,5′R)-6-chloro-4′-(3-chloro-2-fluoro-phenyl)-2′-(2,2-dimethyl-propyl)-2-oxo-1,2-dihydro-spiro[indole-3,3′-pyrrolidine]-5′-carbonyl]-amino}-phenyl)-acetic acid] was tested, and the IC50 was 15 nM.
`COc1cc(OCC[S+](C)[O-])ccc1NC(=O)[C@@H]1N[C@@H](CC(C)(C)C)[C@@]2(C(=O)Nc3cc(Cl)ccc32)[C@H]1c1cccc(Cl)c1F` (single isomer, unassigned) [Example 171, chiral (2′S,3′R,4′S,5′R)-6-chloro-4′-(3-chloro-2-fluoro-phenyl)-2′-(2,2-dimethyl-propyl)-2-oxo-1,2-dihydro-spiro[indole-3,3′-pyrrolidine]-5′-carboxylic acid [4-(2-methanesulfinyl-ethoxy)-2-methoxy-phenyl]-amide] was tested, and the IC50 was 6 nM.
`CC(C)(C)C[C@@H]1N[C@@H](C(=O)Nc2ccc(C(N)=O)cc2)[C@H](c2cccc(Cl)c2F)[C@]12C(=O)Nc1cc(Cl)ccc12` [Example 9, chiral (2′S,3′R,4′S,5′R)-6-chloro-4′-(3-chloro-2-fluoro-phenyl)-2′-(2,2-dimethyl-propyl)-2-oxo-1,2-dihydro-spiro[indole-3,3′-pyrrolidine]-5′-carboxylic acid (4-carbamoyl-phenyl)-amide] gave an IC50 of 4 nM.
`CC(=O)c1ccc(NC(=O)[C@@H]2N[C@@H](CC(C)(C)C)[C@@]3(C(=O)Nc4cc(Cl)ccc43)[C@H]2c2cccc(Cl)c2F)cc1` [Example 12, chiral (2′S,3′R,4′S,5′R)-6-chloro-4′-(3-chloro-2-fluoro-phenyl)-2′-(2,2-dimethyl-propyl)-2-oxo-1,2-dihydro-spiro[indole-3,3′-pyrrolidine]-5′-carboxylic acid (4-acetyl-phenyl)-amide] showed an IC50 of 6 nM.
`COc1cc(NC(=O)[C@@H]2N[C@@H](CC(C)(C)C)[C@@]3(C(=O)Nc4cc(Cl)ccc43)[C@H]2c2cccc(Cl)c2F)ccc1C(=O)O` [Example 17, chiral 4-{[(2′S,3′R,4′S,5′R)-6-chloro-4′-(3-chloro-2-fluoro-phenyl)-2′-(2,2-dimethyl-propyl)-2-oxo-1,2-dihydro-spiro[indole-3,3′-pyrrolidine]-5′-carbonyl]-amino}-2-methoxy-benzoic acid] was tested, and the IC50 was 4 nM.
Work on `CC(C)(C)C[C@@H]1N[C@@H](C(=O)Nc2ccc(OCCO)cc2)[C@H](c2cccc(Cl)c2F)[C@]12C(=O)Nc1cc(Cl)ccc12` [Example 20, chiral (2′S,3′R,4′S,5′R)-6-chloro-4′-(3-chloro-2-fluoro-phenyl)-2′-(2,2-dimethyl-propyl)-2-oxo-1,2-dihydro-spiro[indole-3,3′-pyrrolidine]-5′-carboxylic acid [4-(2-hydroxy-ethoxy)-phenyl]-amide] yielded an IC50 of 7 nM.
With `COc1cc(NC(=O)[C@@H]2N[C@@H](CC(C)(C)C)[C@@]3(C(=O)Nc4cc(Cl)ccc43)[C@H]2c2cccc(Cl)c2F)ccc1C(N)=O` [Example 23, chiral (2′S,3′R,4′S,5′R)-6-chloro-4′-(3-chloro-2-fluoro-phenyl)-2′-(2,2-dimethyl-propyl)-2-oxo-1,2-dihydro-spiro[indole-3,3′-pyrrolidine]-5′-carboxylic acid (4-carbamoyl-3-methoxy-phenyl)-amide] the IC50 was 5 nM.
